Data from patent US5084453A, “1-carboxy-1-vinyloxyimino aminothiazole cephalosporin derivatives” (priority 1988, dated 1992).
Like-named read-outs stand apart in the source and are kept apart here.

Experiments:
Experiment in all cases: in vitro antibacterial activity, agar plate dilution method
Assay type in all cases: cell-based
Ps. cepacia 23 = system: Ps. cepacia 23
Method: (§1) Now, the in vitro antibacterial activities of the compounds of the present invention against various microorganisms, were measured by the following agar plate dilution method.
(§2) One platinum loopfull of each test microorganism incubated overnight in Mueller Hinton broth, was inoculated to Mueller Hinton agar (MH agaer). Such culture media containing various antibiotics in various concentrations were prepared. After incubation at 37° C. for 16 hours, the minimum inhibitory concentrations (MIC μg/ml) were measured.

S. marcescens No. 16-2* = settings: Serratia marcescens, 16 h
Method: as §1, §2

E. coli NIHJ JC2 = settings: Escherichia coli, NIHJJC2; 10^6 CFU/ml; Mueller Hinton agar, 37° C., 16 hours; read-out: MIC
Method: as §1, §2

E. coli CSH2(RK1)* = settings: Escherichia coli, 16 h
Method: as §1, §2

E. cloacae Nek 39* = settings: Enterobacter cloacae
Method: as §1, §2

E. coli CSH(RE45)* = settings: Escherichia coli; 10^6 CFU/ml; β-Lactamase-producing strain; 37° C., 16 hours; read-out: MIC
Method: as §1, §2

S. aureus 209P NIHJ-JC1 = settings: Staphylococcus aureus
Method: as §1, §2

E. cloacae 963 = system: E. cloacae 963
Method: as §1, §2

P. vulgaris HX-19 = settings: Proteus vulgaris, HX19; 10^6 CFU/ml; Mueller Hinton agar, 37° C., 16 hours; read-out: MIC
Method: as §1, §2

K. oxytoca GN10650* = settings: Klebsiella oxytoca
Method: as §1, §2

A. calcoaceticus No. 4 = settings: Acinetobacter calcoaceticus
Method: as §1, §2

S. marcescens IAM 1184 = settings: Serratia marcescens
Method: as §1, §2

E. coli GN5482* = settings: Escherichia coli, GN5482, 16 h
Method: as §1, §2

P. vulgaris No. 33* = settings: Proteus vulgaris
Method: as §1, §2

K. pneumoniae No. 42* = settings: Klebsiella pneumoniae
Method: as §1, §2

K. pneumoniae PC1-602 = settings: Klebsiella pneumoniae, PC1602; 10^6 CFU/ml; Mueller Hinton agar, 37° C., 16 hours; read-out: MIC
Method: as §1, §2

Ps. aeruginosa AK 109 = settings: Pseudomonas aeruginosa
Method: as §1, §2

Ps. aeruginosa AKR17 = settings: Pseudomonas aeruginosa
Method: as §1, §2

Ps. aeruginosa IFO3445 = settings: Pseudomonas aeruginosa, IFO3445, 16 h
Method: as §1, §2

M. morganii GN5407* = settings: Morganella morganii
Method: as §1, §2

[1] = Burkholderia cepacia, 23, 10^6 CFU/ml, Mueller Hinton agar, 37° C., 16 hours, read-out: MIC
[2] = Enterobacter cloacae, 963, 16 h
[3] = IAM1184, 10^6 CFU/ml, Mueller Hinton agar, 37° C., 16 hours, read-out: MIC
[4] = AK109, 10^6 CFU/ml, Mueller Hinton agar, 37° C., 16 hours, read-out: MIC
[5] = AKR17, 10^6 CFU/ml, Mueller Hinton agar, 37° C., 16 hours, read-out: MIC
[6] = 10^6 CFU/ml, β-Lactamase-producing strain, 37° C., 16 hours, read-out: MIC
[7] = 10^6 CFU/ml, Mueller Hinton agar, 37° C., 16 hours, read-out: MIC
[8] = GN10650, 10^6 CFU/ml, β-Lactamase-producing strain, 37° C., 16 hours, read-out: MIC
[9] = GN5407, 10^6 CFU/ml, β-Lactamase-producing strain, 37° C., 16 hours, read-out: MIC

Compound	MIC (Ps. cepacia 23; [1]) [µg/mL]	MIC (S. marcescens No. 16-2*) [µg/mL]	MIC (E. coli NIHJ JC2) [µg/mL]	MIC (E. coli CSH2(RK1)*) [µg/mL]	MIC (E. cloacae Nek 39*; 16 h) [µg/mL]	MIC (E. coli CSH(RE45)*) [µg/mL]	MIC (E. cloacae 963; [2]) [µg/mL]	MIC (P. vulgaris HX-19) [µg/mL]	MIC (K. oxytoca GN10650*; GN10650, 16 h) [µg/mL]	MIC (S. marcescens IAM 1184; [3]) [µg/mL]	MIC (E. coli GN5482*) [µg/mL]	MIC (P. vulgaris No. 33*; 16 h) [µg/mL]	MIC (K. pneumoniae PC1-602) [µg/mL]	MIC (Ps. aeruginosa AK 109; [4]) [µg/mL]	MIC (Ps. aeruginosa AKR17; [5]) [µg/mL]	MIC (Ps. aeruginosa IFO3445) [µg/mL]	MIC (M. morganii GN5407*; GN5407, 16 h) [µg/mL]	MIC (S. aureus 209P NIHJ-JC1; [7]) [µg/mL]	MIC (A. calcoaceticus No. 4; NO.4, 16 h) [µg/mL]	MIC (K. pneumoniae No. 42*; [6]) [µg/mL]	other results
C=C(O/N=C(\C(=O)N[C@@H]1C(=O)N2C(C(=O)[O-])=C(C[n+]3cccc(NC=O)c3)CS[C@H]12)c1csc(N)n1)C(=O)O [Example 10, sodium 7β-[2-(2-aminothiazol-4-yl)-2-(1-carboxylato-1-vinyloxyimino)acetamido]-3-(3-formylamino-1-pyridinio)methyl-3-cephem-4-carboxylate (syn-isomer)]	3.12	1.56	0.0125	0.0125	0.39	0.0125	0.025	< 0.006	0.05	< 0.006	0.1	0.0125	< 0.006	3.12	> 100	0.78	0.0125	–	–	–	MIC (S. aureus 209P NIHJ-JC1; 16 h): 1.56 µg/mL; MIC (A. calcoaceticus No. 4; NO.4, 10^6 CFU/ml, Mueller Hinton agar, 37° C., 16 hours, read-out: MIC): 3.12 µg/mL; MIC (K. pneumoniae No. 42*; 16 h): 0.05 µg/mL
C=C(O/N=C(\C(=O)N[C@@H]1C(=O)N2C(C(=O)O)=C(CSc3nnc(-c4ccc(O)c(O)c4)o3)CS[C@H]12)c1csc(N)n1)C(=O)O [Example 11, disodium 7β-[2-(2-aminothiazol-4-yl)-2-(1-carboxy-1-vinyloxyimino)acetamido]-3-[5-(3,4-dihydroxyphenyl)-1,3,4-oxadiazol-2-yl]thiomethyl-3-cephem-4-carboxylate (syn-isomer)]	< 0.006	0.2	0.05	< 0.006	–	0.05	–	< 0.006	–	0.025	0.1	–	< 0.006	–	3.12	0.39	–	12.5	0.1	0.025	MIC (E. cloacae Nek 39*; [6]): 0.025 µg/mL; MIC (E. cloacae 963; Enterobacter cloacae, 963, 10^6 CFU/ml, Mueller Hinton agar, 37° C., 16 hours, read-out: MIC): 0.025 µg/mL; MIC (K. oxytoca GN10650*; [8]): 0.025 µg/mL; MIC (P. vulgaris No. 33*; [6]): 0.0125 µg/mL; MIC (Ps. aeruginosa AK 109; AK109, 16 h): 0.2 µg/mL; MIC (M. morganii GN5407*; [9]): 0.0125 µg/mL
C=C(O/N=C(\C(=O)N[C@@H]1C(=O)N2C(C(=O)O)=C(CSc3nc(-c4ccc(O)c(O)c4)cs3)CS[C@H]12)c1csc(N)n1)C(=O)O [Example 12, disodium 7β-[2-(2-aminothiazol-4-yl)-2-(1-carboxylato-1-vinyloxyimino)acetamido]-3-[4-(3,4-dihydroxyphenyl)thiazol-2-yl]thiomethyl-3-cephem-4-carboxylate(syn-isomer)]	–	0.39	0.39	0.025	–	0.025	0.2	< 0.006	–	0.05	0.39	0.025	< 0.006	1.56	3.12	0.78	–	3.12	0.2	0.05	MIC (Ps. cepacia 23; Burkholderia cepacia, 23, 16 h): 0.025 µg/mL; MIC (E. cloacae Nek 39*; [6]): 0.1 µg/mL; MIC (K. oxytoca GN10650*; [8]): 0.1 µg/mL; MIC (M. morganii GN5407*; [9]): 0.05 µg/mL
C=C(O/N=C(\C(=O)N[C@@H]1C(=O)N2C(C(=O)O)=C(CSc3nnc(-c4ccc(O)c(O)c4)s3)CS[C@H]12)c1csc(N)n1)C(=O)O [Example 13, disodium 7β-[2-(2-aminothiazol-4-yl)-2-(1-carboxylato-1-vinyloxyimino)acetamido]-3-[5-(3,4-dihydroxyphenyl)-1,3,4-thiadiazol-2-yl]thiomethyl-3-cephem-4-carboxylate (syn-isomer)]	< 0.006	0.05	0.2	< 0.006	0.05	< 0.006	0.05	< 0.006	0.025	–	0.2	0.025	0.0125	–	–	0.78	0.1	3.12	0.1	0.0125	MIC (S. marcescens IAM 1184; IAM1184, 16 h): 0.025 µg/mL; MIC (Ps. aeruginosa AK 109; AK109, 16 h): 0.1 µg/mL; MIC (Ps. aeruginosa AKR17; AKR17, 16 h): 1.56 µg/mL
